# According to PubChem BioAssay AID2060505 (Molecular Pharmacology Branch, DTP, NCI, 2025):
# Test system: 633275-114-R-J1-PDC complex spheroids, viability
# Assay: Anticancer human tumor 633275-114-R-J1-PDC patient-derived endometrial adenocarcinoma cell line growth inhibition [GQUAD]
# Settings: for IC50: curve of first compound; for viability, T/C: stronger effect = lower value
# From the text: DNA G-quadruplex Stabilizer Agents in Combinations in Complex Spheroids
# A high-throughput screen of multi-cell type tumor spheroids was designed to identify active combinations of DNA G-quadruplex stabilizer agents and targeted small molecules. Complex spheroids include a stromal component modeled by human endothelial cells (HUVEC) and fibroblasts modeled by human mesenchymal stem cells (MSCs). The concentration ranges selected for each drug and investigational agent were based upon clinically achievable concentrations if the clinical Cmax of the agent was known.
# Compounds. The drugs and investigational agents: pidnarulex (CX-5461; NSC782164), APTO-253 (NSC789042), BRACO-19 (NSC847499), peposertib (NSC802822), ceralasertib (NSC780249), elimusertib (NSC800525), camonsertib (NSC841442), AZD-1390 (NSC803789), olaparib (NSC753686), talazoparib (NSC767125), ART-558 (NSC835418), sotorasib (NSC818433), MRTX-1133 (NSC836407), SN-38 (NSC673596), topotecan (NSC609699), etoposide (NSC141540), doxorubicin (NSC123127), gemcitabine (NSC613327), 5-fluorouracil (NSC19893), paclitaxel (NSC125973), vemurafenib (NSC761431), panobinostat (NSC761190), R-306465 (JNJ-16241199; NSC773264), adavosertib (NSC754352), TP-3654 (NSC805149), carboplatin (NSC241240), KSQ-4279 (NSC840948), and staurosporine (NSC755774) were obtained from the National Cancer Institute (NCI) Developmental Therapeutics Program Chemical Repository (34). The FDA-approved anticancer drug set is available from the NCI Developmental Therapeutics Program. […] The stock solutions were prepared in dimethyl sulfoxide (DMSO, Sigma-Aldrich, St. Louis, MO, cat. D2650) at 800-fold the tested concentration and stored at -70 degrees C prior to their use. All drugs and investigational agents were tested over a range starting from a high concentration at or near the clinical Cmax and decreasing in half-log increments. If the clinical Cmax for an agent had not been determined, the highest concentration tested was 10 microM.
# 2.3 Cell Culture. All cells were maintained in an incubator at 37 degrees C and 5% CO2 with 95% humidity. The PDC lines were cultured according to standard operating procedures established by the NCI PDMR. All PDCs were thawed and cultured in Matrigel-coated flasks prepared with a working solution of 1X Ham's F-12 nutrient mix, without supplementation (Invitrogen, cat. 11765054), 100 U/mL penicillin-streptomycin (Invitrogen, cat. 15140122), and 2.5% Matrigel (Corning Inc., cat. 354248) for the first three passages. The 857933-349-R-J2-PDC line was cultured in 6C/Colon 1B media, which includes advanced DMEM/F-12 (Thermo Fisher Scientific, cat. 12634028), 10 mM HEPES (Thermo Fisher Scientific, cat. 15630080), 1X GlutaMAX supplement (Thermo Fisher Scientific, cat. 35050061), 0.1 mg/mL primocin (InvivoGen, cat. ant-pm-2), 10% defined fetal bovine serum, heat inactivated (HyClone Laboratories Inc., cat. SH30070.03HI), 50% L-WRN conditioned media (ATCC, cat. CRL-3276), 1.25 mM N-Acetyl-L-cysteine (Sigma-Aldrich, cat. A9165), 10 mM nicotinamide (Sigma-Aldrich, cat. N0636), 1X B-27 supplement (Thermo Fisher Scientific, cat. 17504044), 1X N-2 supplement (Thermo Fisher Scientific, cat. 17502048), 10 microM Y-27632 dihydrochloride (Tocris Bioscience, cat. 1254), and 50 ng/mL human EGF recombinant protein (Thermo Fisher Scientific, cat. PHG0311). The 485176-168-R4-J1-PDC line was cultured in Panc media, which includes all 6C/Colon 1B media components plus 100 ng/mL human FGF-10 (Thermo Fisher Scientific, cat. 100-26), 500 nM SB-431542 (Selleckchem, cat. S1067), and gastrin (Tocris, cat. 3006).
# […]
# [1] = second compound 0.0316 µM, first compound 0.0316 µM
# [2] = second compound 0.0316 µM, first compound 0.1 µM
# [3] = second compound 0.0316 µM, first compound 0.316 µM
# [4] = second compound 0.0316 µM, first compound 1 µM
# [5] = second compound 0.0316 µM, first compound 3.16 µM
# [6] = second compound 0.0316 µM, first compound 10 µM
# [7] = second compound 0.1 µM, first compound 0.0316 µM
# [8] = second compound 0.1 µM, first compound 0.1 µM
# [9] = second compound 0.1 µM, first compound 0.316 µM
# [10] = second compound 0.1 µM, first compound 1 µM
# [11] = second compound 0.1 µM, first compound 3.16 µM
# [12] = second compound 0.1 µM, first compound 10 µM
# [13] = second compound 0.316 µM, first compound 0.0316 µM
# [14] = second compound 0.316 µM, first compound 0.1 µM
# [15] = second compound 0.316 µM, first compound 0.316 µM
# [16] = second compound 0.316 µM, first compound 1 µM
# [17] = second compound 0.316 µM, first compound 3.16 µM
# [18] = second compound 0.316 µM, first compound 10 µM
# [19] = second compound 1 µM, first compound 0.0316 µM
# [20] = second compound 1 µM, first compound 0.1 µM
# [21] = second compound 1 µM, first compound 0.316 µM
# [22] = second compound 1 µM, first compound 1 µM
# [23] = second compound 1 µM, first compound 3.16 µM
# [24] = second compound 1 µM, first compound 10 µM
# [25] = second compound 3.16 µM, first compound 0.0316 µM
# [26] = second compound 3.16 µM, first compound 0.1 µM
# [27] = second compound 3.16 µM, first compound 0.316 µM
# [28] = second compound 3.16 µM, first compound 1 µM
# [29] = second compound 3.16 µM, first compound 3.16 µM
# [30] = second compound 3.16 µM, first compound 10 µM
# [31] = second compound 10 µM, first compound 0.0316 µM
# [32] = second compound 10 µM, first compound 0.1 µM
# [33] = second compound 10 µM, first compound 0.316 µM
# [34] = second compound 10 µM, first compound 1 µM
# [35] = second compound 10 µM, first compound 3.16 µM
# [36] = second compound 10 µM, first compound 10 µM
# 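Also: spheroids exposed to the agents for seven days.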
# 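For viability, T/C in this document: percent of DMSO vehicle control viability which is 100%.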
structure (smiles),measurement,setting,value
CC1COCCN1c1cc(C2(O)CC3CCC(C2)O3)c2cnn(-c3ccn[nH]3)c2n1 (stereo unspecified) + CN(C)c1ccc(Nc2c3ccc(NC(=O)CCN4CCCC4)cc3nc3cc(NC(=O)CCN4CCCC4)ccc23)cc1,IC50,second compound 0.0316 µM,0.0935 µM
same,IC50,second compound 0.1 µM,0.0927 µM
same,IC50,second compound 0.316 µM,0.105 µM
same,IC50,second compound 1 µM,0.0653 µM
same,IC50,second compound 3.16 µM,0.0532 µM
same,IC50,second compound 10 µM,< 0.0316 µM
same,"viability, T/C",[1],73.6%
same,"viability, T/C",[2],48.9%
same,"viability, T/C",[3],28.7%
same,"viability, T/C",[4],18.4%
same,"viability, T/C",[5],13.6%
same,"viability, T/C",[6],9.33%
same,"viability, T/C",[7],79.9%
same,"viability, T/C",[8],46.5%
same,"viability, T/C",[9],30.2%
same,"viability, T/C",[10],19.8%
same,"viability, T/C",[11],15.4%
same,"viability, T/C",[12],9.07%
same,"viability, T/C",[13],70.7%
same,"viability, T/C",[14],50.7%
same,"viability, T/C",[15],33.1%
same,"viability, T/C",[16],19.2%
same,"viability, T/C",[17],15.8%
same,"viability, T/C",[18],10.4%
same,"viability, T/C",[19],62.7%
same,"viability, T/C",[20],41.7%
same,"viability, T/C",[21],30.4%
same,"viability, T/C",[22],19.8%
same,"viability, T/C",[23],14.4%
same,"viability, T/C",[24],9.06%
same,"viability, T/C",[25],58.8%
same,"viability, T/C",[26],39%
same,"viability, T/C",[27],26.7%
same,"viability, T/C",[28],15.3%
same,"viability, T/C",[29],12%
same,"viability, T/C",[30],8.3%
same,"viability, T/C",[31],29.2%
same,"viability, T/C",[32],23.9%
same,"viability, T/C",[33],17%
same,"viability, T/C",[34],10.9%
same,"viability, T/C",[35],8.55%
same,"viability, T/C",[36],4.92%
CC1COCCN1c1cc(C2(S(C)(=N)=O)CC2)nc(-c2ccnc3[nH]ccc23)n1 (stereo unspecified) + CN(C)c1ccc(Nc2c3ccc(NC(=O)CCN4CCCC4)cc3nc3cc(NC(=O)CCN4CCCC4)ccc23)cc1,IC50,second compound 0.0316 µM,3.49 µM
same,IC50,second compound 0.1 µM,4.43 µM
same,IC50,second compound 0.316 µM,3.81 µM
same,IC50,second compound 1 µM,2.78 µM
same,IC50,second compound 3.16 µM,3.05 µM
same,IC50,second compound 10 µM,< 0.0316 µM
same,"viability, T/C",[1],101%
same,"viability, T/C",[2],103%
same,"viability, T/C",[3],103%
same,"viability, T/C",[4],74.2%
same,"viability, T/C",[5],54.6%
same,"viability, T/C",[6],34.9%
same,"viability, T/C",[7],115%
same,"viability, T/C",[8],96.1%
same,"viability, T/C",[9],97.1%
same,"viability, T/C",[10],84.6%
same,"viability, T/C",[11],53.1%
same,"viability, T/C",[12],34.5%
same,"viability, T/C",[13],109%
same,"viability, T/C",[14],94.7%
same,"viability, T/C",[15],101%
same,"viability, T/C",[16],82.9%
same,"viability, T/C",[17],52.8%
same,"viability, T/C",[18],35.4%
same,"viability, T/C",[19],98%
same,"viability, T/C",[20],87.8%
same,"viability, T/C",[21],95.4%
same,"viability, T/C",[22],70.1%
same,"viability, T/C",[23],49%
same,"viability, T/C",[24],33.7%
same,"viability, T/C",[25],86.3%
same,"viability, T/C",[26],85.1%
same,"viability, T/C",[27],84.4%
same,"viability, T/C",[28],66.9%
same,"viability, T/C",[29],50.7%
same,"viability, T/C",[30],32.8%
same,"viability, T/C",[31],37%
same,"viability, T/C",[32],38.2%
same,"viability, T/C",[33],36%
same,"viability, T/C",[34],32.6%
same,"viability, T/C",[35],28%
same,"viability, T/C",[36],19.9%
COc1ccc([C@@H](O)c2cc(-c3ncnc4cc(N5CCOCC5)ccc34)c(F)cc2Cl)nn1 + CN(C)c1ccc(Nc2c3ccc(NC(=O)CCN4CCCC4)cc3nc3cc(NC(=O)CCN4CCCC4)ccc23)cc1,IC50,second compound 0.0316 µM,4.67 µM
same,IC50,second compound 0.1 µM,3.73 µM
same,IC50,second compound 0.316 µM,2.64 µM
same,IC50,second compound 1 µM,1.71 µM
same,IC50,second compound 3.16 µM,0.938 µM
same,IC50,second compound 10 µM,< 0.0316 µM
same,"viability, T/C",[1],108%
same,"viability, T/C",[2],97.2%
same,"viability, T/C",[3],83.7%
same,"viability, T/C",[4],74.7%
same,"viability, T/C",[5],55.7%
same,"viability, T/C",[6],37.6%
same,"viability, T/C",[7],96%
same,"viability, T/C",[8],102%
same,"viability, T/C",[9],88.9%
same,"viability, T/C",[10],71.1%
same,"viability, T/C",[11],55.3%
same,"viability, T/C",[12],32.3%
same,"viability, T/C",[13],92.5%
same,"viability, T/C",[14],91.6%
same,"viability, T/C",[15],93.5%
same,"viability, T/C",[16],65.3%
same,"viability, T/C",[17],49.8%
same,"viability, T/C",[18],30.9%
same,"viability, T/C",[19],91.8%
same,"viability, T/C",[20],88%
same,"viability, T/C",[21],81.3%
same,"viability, T/C",[22],59.6%
same,"viability, T/C",[23],38.7%
same,"viability, T/C",[24],26.8%
same,"viability, T/C",[25],84.2%
same,"viability, T/C",[26],81.2%
same,"viability, T/C",[27],73.7%
same,"viability, T/C",[28],46.9%
same,"viability, T/C",[29],30.6%
same,"viability, T/C",[30],20.4%
same,"viability, T/C",[31],33.8%
same,"viability, T/C",[32],34.8%
same,"viability, T/C",[33],21.5%
same,"viability, T/C",[34],13.8%
same,"viability, T/C",[35],11.8%
same,"viability, T/C",[36],9.3%
